The values below come from PMC12426469, “A Covalent and Modulable Inhibitor of the Tubulin‐Microtubule System: Insights Into the Mechanism of Cacalol” (Chemical Biology & Drug Design, 2025).

Structures are written as SMILES. pIC50: −log10 of the molar value.

The test addresses T1, α-tubulin (Sus scrofa, UniProt P02550).
T1 construct: gene TUBA1A; purified porcine brain α,β-tubulin; modified peptide 340SIQFVDWCPTGFK352 of α-tubulin; with β-tubulin
Put plainly: LC-MS of trypsin-digested tubulin showing covalent adduct; IC50 from in vitro tubulin polymerization assay. The class given is biochemical.

T1 sequence (P02550 whole entry): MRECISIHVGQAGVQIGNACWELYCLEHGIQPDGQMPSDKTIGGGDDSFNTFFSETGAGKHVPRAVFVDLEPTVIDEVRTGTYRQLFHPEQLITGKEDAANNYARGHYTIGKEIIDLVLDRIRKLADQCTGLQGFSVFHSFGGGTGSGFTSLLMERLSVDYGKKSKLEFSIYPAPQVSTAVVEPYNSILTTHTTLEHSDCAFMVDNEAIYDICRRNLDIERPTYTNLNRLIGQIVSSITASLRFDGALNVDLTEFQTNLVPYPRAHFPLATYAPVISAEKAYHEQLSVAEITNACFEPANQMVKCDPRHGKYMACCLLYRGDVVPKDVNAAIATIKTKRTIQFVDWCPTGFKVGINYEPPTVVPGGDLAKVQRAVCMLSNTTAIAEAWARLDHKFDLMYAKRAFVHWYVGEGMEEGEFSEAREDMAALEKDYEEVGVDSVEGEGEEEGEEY
T1 sequence (P02554 whole entry partner): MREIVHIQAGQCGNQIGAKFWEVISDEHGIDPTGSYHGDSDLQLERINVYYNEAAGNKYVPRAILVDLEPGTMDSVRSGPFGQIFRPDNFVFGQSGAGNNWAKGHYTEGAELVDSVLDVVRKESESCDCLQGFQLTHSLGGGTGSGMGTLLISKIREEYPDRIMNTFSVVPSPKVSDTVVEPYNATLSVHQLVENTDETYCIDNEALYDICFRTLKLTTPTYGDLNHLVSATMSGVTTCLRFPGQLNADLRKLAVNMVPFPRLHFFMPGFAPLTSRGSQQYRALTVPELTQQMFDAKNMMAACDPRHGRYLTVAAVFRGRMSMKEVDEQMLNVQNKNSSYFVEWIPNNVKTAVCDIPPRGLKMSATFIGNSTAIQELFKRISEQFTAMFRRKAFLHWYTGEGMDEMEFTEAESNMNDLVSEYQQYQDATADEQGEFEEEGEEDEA

Consider `C=C1C2=C(CCC[C@@H]2C)C(=O)c2occ(C)c21` [compound 2, (S)‐3,5‐Dimethyl‐4‐Methylene‐5,6,7,8‐Tetrahydronaphtho[2,3‐b]Furan‐9(4H )‐One], for which the pIC50 was 4.37.

In general, pIC50 refers to the IC50 on a negative log10 scale, so that one unit is a factor of ten. A low value points to a high IC50.
